Data taken from patent US20260258048A1, “LACTAM-CONTAINING IMIDAZOPYRIDAZINE IL-17 INHIBITOR COMPOUNDS” (Janssen Pharmaceutica NV, priority 2023, published 2026).
pIC50: −log10 of the molar value.

The molecules below were run on IL-17A-induced G-CSF production in human normal keratinocyte (NHK) (assay: NHK assay: IL-17A-induced G-CSF production in normal human keratinocytes). Conditions: Homo sapiens, Keratinocyte, 24 h, IL-17A 5 ng/mL, class of the average IC50 where tested more than once.
Assay type: cell-based
Method: IL-17A acts directly on keratinocytes through binding to dimeric receptor IL-17RA/RC and drives the production of a number of inflammatory mediators known to be elevated in psoriasis lesional tissue. IL-17A small molecule inhibitors that block the IL-17A to interact with IL-17R would inhibit the IL-17A signaling in its targeted cells such as keratinocytes. The compound functional activity is evaluated for its impact on IL-17A-induced G-CSF production in human normal keratinocyte (NHK).
Adult normal human keratinocytes are cultured in keratinocyte growth medium (Lonza) in a flask till reaching ~90% confluence, then cells are transferred to a 384-well plate at density of 3000-4000 cell/well. Recombinant human IL-17A (Gibco PHC9174) is pre-incubated with titrated compound or DMSO for 1 h at rt then added to the cell culture plate. The final concentration of IL-17A is 5 ng/mL and DMSO is 0.2%, in the culture containing 5% FBS. Cells are cultured/treated for 24 h at 37° C. Supernatants are collected and G-CSF production is measured through HTRF technology using Human G-CSF Kit (CisBio). G-CSF concentration was extrapolated from the standard curve and IC50 is determined using GraphPad Prism. Cell viability is also evaluated using CellTiter-Glo kit (Promega) and effect of compound on cell viability is compared to DMSO control.

| SMILES | pIC50 |
| --- | --- |
| O=C(N[C@H](c1cn2ncc(C[C@@H]3C(=O)NCC[C@H]3C(F)(F)F)cc2n1)C1CCC(F)(F)CC1)c1nonc1C1CC1 (relative stereo) [Example 3, 4-Cyclopropyl-N—[(S)-(4,4-difluorocyclohexyl)-[7-[[(3S*,4R*)-2-oxo-4-(trifluoromethyl)-3-piperidyl]methyl]imidazo[1,2-b]pyridazin-2-yl]methyl]-1,2,5-oxadiazole-3-carboxamide] | < 5.40 |
| O=C(N[C@H](c1cn2ncc(C[C@H]3C(=O)NCC[C@@H]3C(F)(F)F)cc2n1)C1CCC(F)(F)CC1)c1nonc1C1CC1 (relative stereo) [Example 4, 4-Cyclopropyl-N—[(S)-(4,4-difluorocyclohexyl)-[7-[[(3R*,4S*)-2-oxo-4-(trifluoromethyl)-3-piperidyl]methyl]imidazo[1,2-b]pyridazin-2-yl]methyl]-1,2,5-oxadiazole-3-carboxamide] | 5.40 to 6.40 |
| O=C(N[C@H](c1cn2ncc(C[C@H]3CC[C@H](C(F)(F)F)NC3=O)cc2n1)C1CCC(F)(F)CC1)c1nonc1C1CC1 (relative stereo) [Example 29, 4-Cyclopropyl-N—((S)-(4,4-difluorocyclohexyl)(7-(((3R*,6R*)-2-oxo-6-(trifluoromethyl)piperidin-3-yl)methyl)imidazo[1,2-b]pyridazin-2-yl)methyl)-1,2,5-oxadiazole-3-carboxamide] | 5.40 to 6.40 |
| O=C(N[C@H](c1cn2ncc(C[C@H]3CC[C@@H](C(F)(F)F)NC3=O)cc2n1)C1CCC(F)(F)CC1)c1nonc1C1CC1 (relative stereo) [Example 30, 4-Cyclopropyl-N—((S)-(4,4-difluorocyclohexyl)(7-(((3R*,6S*)-2-oxo-6-(trifluoromethyl)piperidin-3-yl)methyl)imidazo[1,2-b]pyridazin-2-yl)methyl)-1,2,5-oxadiazole-3-carboxamide] | < 5.40 |
| O=C(N[C@H](c1cn2ncc(C[C@@H]3CC[C@H](C(F)(F)F)NC3=O)cc2n1)C1CCC(F)(F)CC1)c1nonc1C1CC1 (relative stereo) [Example 31, 4-Cyclopropyl-N—((S)-(4,4-difluorocyclohexyl)(7-(((3S*,6R*)-2-oxo-6-(trifluoromethyl)piperidin-3-yl)methyl)imidazo[1,2-b]pyridazin-2-yl)methyl)-1,2,5-oxadiazole-3-carboxamide] | > 6.40 |
| O=C(N[C@H](c1cn2ncc(C[C@@H]3CC[C@@H](C(F)(F)F)NC3=O)cc2n1)C1CCC(F)(F)CC1)c1nonc1C1CC1 (relative stereo) [Example 32, 4-Cyclopropyl-N—((S)-(4,4-difluorocyclohexyl)(7-(((3S*,6S*)-2-oxo-6-(trifluoromethyl)piperidin-3-yl)methyl)imidazo[1,2-b]pyridazin-2-yl)methyl)-1,2,5-oxadiazole-3-carboxamide] | < 5.40 |
| O=C(N[C@H](c1cn2ncc(C[C@H]3C[C@@H](C(F)(F)F)CNC3=O)cc2n1)C1CCC(F)(F)CC1)c1nonc1C1CC1 (relative stereo) [Example 33, 4-Cyclopropyl-N—((S)-(4,4-difluorocyclohexyl)(7-(((3R*,5R*)-2-oxo-5-(trifluoromethyl)piperidin-3-yl)methyl)imidazo[1,2-b]pyridazin-2-yl)methyl)-1,2,5-oxadiazole-3-carboxamide] | 5.40 to 6.40 |
| O=C(N[C@H](c1cn2ncc(C[C@H]3C[C@H](C(F)(F)F)CNC3=O)cc2n1)C1CCC(F)(F)CC1)c1nonc1C1CC1 (relative stereo) [Example 34, 4-Cyclopropyl-N—((S)-(4,4-difluorocyclohexyl)(7-(((3R*,5S*)-2-oxo-5-(trifluoromethyl)piperidin-3-yl)methyl)imidazo[1,2-b]pyridazin-2-yl)methyl)-1,2,5-oxadiazole-3-carboxamide] | < 5.40 |
| CC(C)(CC[C@H](NC(=O)c1nonc1C1CC1)c1cn2ncc([C@@H](O)[C@H]3C[C@@H](C(F)(F)F)NC3=O)cc2n1)C(F)(F)F (relative stereo) [Example 66, 4-Cyclopropyl-N—((S)-5,5,5-trifluoro-1-(7-((S*)-hydroxy((3R*,5S)-2-oxo-5-(trifluoromethyl)pyrrolidin-3-yl)methyl)imidazo[1,2-b]pyridazin-2-yl)-4,4-dimethylpentyl)-1,2,5-oxadiazole-3-carboxamide] | 5.40 to 6.40 |
| CC(C)(CC[C@H](NC(=O)c1nonc1C1CC1)c1cn2ncc([C@@H](O)[C@@H]3C[C@@H](C(F)(F)F)NC3=O)cc2n1)C(F)(F)F (relative stereo) [Example 67, 4-Cyclopropyl-N—((S)-5,5,5-trifluoro-1-(7-((S*)-hydroxy((3S*,5S)-2-oxo-5-(trifluoromethyl)pyrrolidin-3-yl)methyl)imidazo[1,2-b]pyridazin-2-yl)-4,4-dimethylpentyl)-1,2,5-oxadiazole-3-carboxamide] | < 5.40 |
| C[C@@H]1C[C@@H](Cc2cnn3cc([C@@H](NC(=O)c4nonc4C4CC4)C4CCC(F)(F)CC4)nc3c2)C(=O)N1 (relative stereo) [Example 84, Cyclopropyl-N—((S)-(4,4-difluorocyclohexyl)(7-(((3R*,5R*)-5-methyl-2-oxopyrrolidin-3-yl)methyl)imidazo[1,2-b]pyridazin-2-yl)methyl)-1,2,5-oxadiazole-3-carboxamide] | < 5.40 |
| C[C@H]1CNC(=O)[C@@H]1Cc1cnn2cc([C@@H](NC(=O)c3nonc3C3CC3)C3CCC(F)(F)CC3)nc2c1 (relative stereo) [Example 87, 4-Cyclopropyl-N—[(S)-(4,4-difluorocyclohexyl)-[7-[[(3R*,4R*)-4-methyl-2-oxo-pyrrolidin-3-yl]methyl]imidazo[1,2-b]pyridazin-2-yl]methyl]-1,2,5-oxadiazole-3-carboxamide] | < 5.40 |
| CC[C@@H]1C[C@@H](Cc2cnn3cc([C@@H](NC(=O)c4nonc4C4CC4)C4CCC(F)(F)CC4)nc3c2)C(=O)N1 (relative stereo) [Example 90, 4-Cyclopropyl-N—[(S)-(4,4-difluorocyclohexyl)-[7-[[(3R*,5R*)-5-ethyl-2-oxo-pyrrolidin-3-yl]methyl]imidazo[1,2-b]pyridazin-2-yl]methyl]-1,2,5-oxadiazole-3-carboxamide] | > 6.40 |
| O=C(N[C@H](c1cn2ncc(CC3CC(C(F)(F)F)CNC3=O)cc2n1)C1CCC(F)(F)CC1)c1nonc1C1CC1 (single isomer, unassigned) [Example 35, 4-Cyclopropyl-N-((1S)-(4,4-difluorocyclohexyl)(7-(((3S*)-2-oxo-5-(trifluoromethyl)piperidin-3-yl)methyl)imidazo[1,2-b]pyridazin-2-yl)methyl)-1,2,5-oxadiazole-3-carboxamide] | 5.40 to 6.40 |
| Cc1nonc1C(=O)N[C@@H](CCC(C)(C)C(F)(F)F)c1cn2ncc(C[C@H]3C[C@@H](C(F)(F)F)NC3=O)cc2n1 (single isomer, unassigned) [Example 37] | > 6.40 |
| C[C@@]1(C(F)(F)F)CC(Cc2cnn3cc([C@@H](NC(=O)c4nonc4C4CC4)C4CCC(F)(F)CC4)nc3c2)C(=O)N1 (single isomer, unassigned) [Example 55, 4-Cyclopropyl-N—((S)-(4,4-difluorocyclohexyl(7-(((3S*,5S)-5-methyl-2-oxo-5-(trifluoromethyl)pyrrolidine-3-yl)methyl)imidazo[1,2-b]pyrrolidin-2-yl)methyl)-1,2,5-oxadiazole-3-carboxamide] | > 6.40 |
| CC(C)(CC[C@H](NC(=O)c1nonc1C1CC1)c1cn2ncc(CC3C[C@@](C)(C(F)(F)F)NC3=O)cc2n1)C(F)(F)F (single isomer, unassigned) [Example 57, 4-Cyclopropyl-N—((S)-5,5,5-trifluoro-4,4-dimethyl-1-(7-(((3S*,5S)-5-methyl-2-oxo-5-(trifluoromethyl)pyrrolidin-3-yl)methyl)imidazo[1,2-b]pyridazin-2-yl)pentyl)-1,2,5-oxadiazole-3-carboxamide] | > 6.40 |
| COC[C@]1(Cc2cnn3cc([C@@H](NC(=O)c4nonc4C4CC4)C4CCC(F)(F)CC4)nc3c2)C[C@@H](C(F)(F)F)NC1=O (single isomer, unassigned) [Example 99] | > 6.40 |
| Cc1nonc1C(=O)N[C@H](c1cn2ncc([C@@](C)(O)[C@@]3(C)C[C@@H](C(F)(F)F)NC3=O)cc2n1)C1CCC(F)(F)CC1 [Example 106, N—((S)-(4,4-Difluorocyclohexyl)(7-((R)-1-hydroxy-1-((3R,5S)-3-methyl-2-oxo-5-(trifluoromethyl)pyrrolidin-3-yl)ethyl)imidazo[1,2-b]pyridazin-2-yl)methyl)-4-methyl-1,2,5-oxadiazole-3-carboxamide] | > 6.40 |
